Values of other authors in the CATMoS acute toxicity set (Mansouri et al. 2021).
“And” between values parts separate entries of the source, which are not always exact repeats. Identical values can stand only once.

Assay: rat acute oral toxicity
Conditions: in vivo
Description: […]The data set underlying the modeling effort for this project was initially compiled by NICEATM and U.S. EPA’s CCTE. Briefly, LD50 data were collected from rat acute oral systemic toxicity tests, including limit tests, ranges/confidence intervals, and discrete LD50 values. The full data set included 21,200 LD50 entries for 15,688 substances. […] Data were reviewed to ensure that LD50 values with obvious errors in the extracted data such as unit conversion errors (e.g., comma and decimal separator misplacements) were either fixed or removed. After this review, 16,209 LD50 values remained. Many of the chemicals represented had multiple LD50 entries, requiring that a single representative value per Chemical Abstracts Service Registry Number (CASRN) identifier be defined to facilitate modeling efforts. Based on ATWG feedback and to define the representative LD50 as a protective value while accounting for the distribution across multiple LD50s, the median of the lowest quartile was computed using only discrete LD50 values (omitting limit test data and range and confidence interval data). A detailed summary of the data compilation is available online on the NICEATM webpage dedicated to the collaborative modeling project (NTP 2020).
[…][…] For categorical designations, limit test and range/confidence interval LD50 data were integrated wherever possible. As such, the number of chemicals with end point values/calls varies across the modeling end points (Table 3) based on whether chemicals had representative LD50 values and/or other data. If a chemical had both, the representative value was used to determine categorical calls rather than limit test data. Some data were useable only for certain end points and categories depending on the thresholds. For example, ranges that spanned multiple hazard categories were considered only for the binary (very toxic/nontoxic) end points and omitted from rendering a determination for hazard category assignment.
[…]The final data set comprising 11,992 chemicals was split into training and evaluation sets […], respectively. This process was performed semirandomly by ordering chemicals based on the five end points (categorical and continuous LD50 values) and partitioning every fourth record into the evaluation set accordingly. This approach was taken to ensure an equivalent distribution of the LD50 values and the different hazard categories between the training and the evaluation sets without supervised sampling of the chemicals based on structures (Figure 1A). The sources of the chemical structures were also kept equivalent between the two sets, with chemical structures obtained from DSSTox, being the highest quality, representing over 75% of each set (Figure 1B).

Compound	LD50
CCN(CC)CCOC(=O)c1cccnc1	8400 mg/kg
NNC(=O)CCCCCCCCC(=O)NN	2500 mg/kg
CCCCCCc1ccccc1O	1300 mg/kg
CCCCNC(=O)c1ccccc1	5140 mg/kg
O=C1CCC(C(=O)NC2CC2c2ccccc2)N1 (stereo not given)	96 mg/kg
Cc1ncc(CNC(=O)N(CCCl)N=O)c(N)n1	113 mg/kg
CC(C)OP(=S)(OC(C)C)SCSC(C)C	5 mg/kg
Clc1cccc(N2CCNCC2)c1	142 mg/kg
CCCCCOC(C[n+]1ccccc1)c1ccc(C2CCCCC2)cc1 (stereo not given)	250 mg/kg
C=C(Cl)c1ccc([N+](=O)[O-])cc1	710 mg/kg
CCCCCCCCOC(C[n+]1ccccc1)c1ccc(C2CCCC2)cc1 (stereo not given)	250 mg/kg
CN(C)N(C)N=O	95 mg/kg
Clc1ccc(COC(Cn2ccnc2)c2ccc(Cl)cc2Cl)cc1 (stereo not given)	668 mg/kg
CNC(=O)ON=C1SCCOC1C (stereo not given)	6 mg/kg
CCOc1ccccc1OCC	7250 mg/kg
CNS(=O)(=O)c1cc(OC)c(N)cc1C	91.5 mg/kg
C[C@H](CCC(=O)O)[C@H]1CC[C@H]2[C@@H]3CC[C@@H]4C[C@H](O)CC[C@]4(C)[C@H]3C[C@H](O)[C@]12C	1370 mg/kg and 1000 mg/kg
Cc1ccc(N=CN(C)Sc2ccc(Cl)cc2)c(C)c1	320 mg/kg
CCCSc1ccc2[nH]c(NC(=O)OC)nc2c1	2400 mg/kg
O=CC(Cl)CCl (stereo not given)	160 mg/kg
CCOC(=O)NNc1nncc2ccccc12	318 mg/kg and 598 mg/kg
O=[N+]([O-])c1cccc2ccccc12	150 mg/kg
CC(=O)N(CCN(C(C)=O)C(C)=O)C(C)=O	7940 mg/kg
CCC/C=C/C(OCC)OCC	860 mg/kg
CSCC(=NO)C(C)(C)C	813 mg/kg
C/N=C/Nc1ccc(Cl)cc1C	264 mg/kg

Compound	LD50
O=C1C2=C(CCCC2)C(=O)N1c1ccc(Cl)cc1	24000 mg/kg
CC(N)C12CC3CC(CC(C3)C1)C2 (stereo not given)	640 mg/kg
CN=c1oc2ccccc2n1C	1000 mg/kg
COP(=O)(CCC(=O)NCO)OC	13000 mg/kg
Cc1ccc(C(C)C=O)cc1 (stereo not given)	3500 mg/kg
CON=CC1=CCCNC1	12 mg/kg
CCOC(=S)C=Cc1ccc(OC)cc1	930 mg/kg
CCCCOC(C1=NCCCN1)c1ccccc1 (stereo not given)	310 mg/kg
O=C(O)Cc1sc(-c2ccccc2)nc1-c1ccc(Cl)cc1	409 mg/kg
O=C(NC(O)C(Cl)(Cl)Cl)NC(O)C(Cl)(Cl)Cl (stereo not given)	6400 mg/kg
C1CCC(CNC2=NCCS2)CC1	50 mg/kg
CC(Cc1ccccc1)NCCCCl (stereo not given)	410 mg/kg
N[C@@H](Cc1ccc(O)c(O)c1)C(=O)O	1780 mg/kg
CCN(CC)CCOc1ccccc1-n1c(C)ccc1-c1ccccc1	700 mg/kg
CCC1(NC(N)=O)CCCC1	950 mg/kg
COc1ccc(S(=O)(=O)Nc2nnc(C(C)(C)C)s2)cc1	1150 mg/kg
Cc1ccc(C)n1Nc1ccc(N2CCOCC2)nn1	2250 mg/kg
CCC(Cc1c(I)cc(I)c(N)c1I)C(=O)O (stereo not given)	2990 mg/kg and 1540 mg/kg
Cc1nc2n(c(=O)c1CCN1CCC(c3noc4cc(F)ccc34)CC1)CCCC2	56.6 mg/kg
c1ccc(C2=NCOCS2)cc1	650 mg/kg
C=CCN(CC=C)c1c(C)cc(OC(=O)NC)cc1C	89 mg/kg
CCSc1nc(=O)n(CC(C)(C)C)c(=O)n1N	3500 mg/kg
CCCN(CCC)c1c([N+](=O)[O-])cc(C(F)(F)F)cc1[N+](=O)[O-]	1930 mg/kg
CC(C)=CCC(CCN1CCCCC1)(C(N)=O)c1cccc2ccccc12 (stereo not given)	57 mg/kg
FC(F)(F)c1nc2c(Br)c(Br)c(Cl)c(Br)c2[nH]1	8.32 mg/kg
COP(=O)(NC=O)SC (stereo not given)	190 mg/kg

Compound	LD50
O=C1CCc2cc(C=CCN3CCN(c4ccc(Cl)cc4)CC3)ccc2N1	500 mg/kg
CC(C)(O)c1ccccc1	1300 mg/kg
CC1(C)CNC(=NN=C(/C=C/c2ccc(C(F)(F)F)cc2)/C=C/c2ccc(C(F)(F)F)cc2)NC1	1130 mg/kg
CCCCSC(C)C1(CC)C(=O)N=C(O)NC1=O (stereo not given)	582 mg/kg
FC(F)(F)c1nc2c(Br)cccc2[nH]1	28 mg/kg
CCOP(=S)(OCC)Oc1cc(C)[nH]n1	12 mg/kg
CNCCc1ccccn1	3030 mg/kg and 6110 mg/kg
CCCCOC(=O)COc1ccc(Cl)cc1C	914 mg/kg
CCC1OCSC1=NOC(=O)NC (stereo not given)	24 mg/kg
CCCCCCCCCCCCOC(CBr)c1ccc(C(C)C)cc1 (stereo not given)	250 mg/kg
CCCCC(CC)(C(=O)OCC)C(=O)OCCN(CC)CC (stereo not given)	638 mg/kg
CCCN(CCC)CCCCCCCCNC(=O)Oc1ccc2c(c1)[C@]1(C)CCN(C)[C@@H]1N2C	18.3 mg/kg
O=C1CC=C(O)N=N1	3900 mg/kg
O=CCC1CC2CC1C1CCCC21 (stereo not given)	500 mg/kg
CCCCOC(CBr)c1ccc(C2CCCC2)cc1 (stereo not given)	250 mg/kg
N#CCCC#N	450 mg/kg
Nc1cc(Cl)cc(C(=O)O)c1Cl	3500 mg/kg
CCCCN(CCN(CCCC)C(=O)N1CCOCC1)C(=O)N1CCOCC1	270 mg/kg
CS(=O)(=O)Oc1ccc(Cl)cc1Cl	2790 mg/kg
O=S(=O)(O)c1ccc(N=Nc2ccc(N=Nc3c(O)ccc4ccccc34)cc2)cc1	7740 mg/kg
Cc1cnc(C)cn1	1020 mg/kg
CC1(C)C(C(=O)OCc2coc(Cc3ccccc3)c2)C1(C)C	141 mg/kg
CCCCCCC(C)=CC#N	1720 mg/kg
C=CCCC(=O)Cl	470 mg/kg
CCCCCCCCCC(=O)OCCN1CCN(CCCN2c3ccccc3Sc3ccc(C(F)(F)F)cc32)CC1	19 mg/kg
C=CCSC(=S)SC(Cl)(Cl)Cl	2180 mg/kg

Compound	LD50
CN=C(O)O/N=C1\SCOC1C(C)C (stereo not given)	16 mg/kg
COc1cc2nc(N3CCN(C(=O)C4CCCO4)CC3)nc(N)c2cc1OC (stereo not given)	5500 mg/kg
Clc1nc(C(Cl)(Cl)Cl)c(Cl)c(Cl)c1Cl	1840 mg/kg
O=c1[nH]c2ccc(Cl)cc2o1	1200 mg/kg
CCCCCCOCC(O)CO (stereo not given)	2500 mg/kg
CC(C)[N+](C)(CCC(C(N)=O)(c1ccccc1)c1ccccc1)C(C)C	1030 mg/kg
O=C1C=CC(=O)N1CCCCCCN1C(=O)C=CC1=O	550 mg/kg
S=c1[nH]c(=S)[nH]c(=S)[nH]1	9500 mg/kg
ClCCOCCOCCOCCCl	180 mg/kg
C=CCOc1ccccc1C(=O)NC1CCCCC1	1200 mg/kg
ONc1ccccc1	100 mg/kg
ClCC1(CCl)COC1	600 mg/kg
COC(C)=O	6480 mg/kg
COP(=S)(OC)Oc1ccc(S(N)(=O)=O)cc1	160 mg/kg
CCCCN(CCCC)CCC(O)c1cc2c(Cl)cc(Cl)cc2c2cc(C(F)(F)F)ccc12 (stereo not given)	3400 mg/kg
Cn1c2c(c3cc(N)ccc31)CCCC2	229 mg/kg
CCN(CC)NNCCCO	3730 mg/kg
O=C1CN(N=Cc2ccc([N+](=O)[O-])o2)C(=O)N1	604 mg/kg
CCC(C)c1cc(OC(=O)NC)ccc1C (stereo not given)	35 mg/kg
N#CSc1ccc(N)cc1	240 mg/kg
C(=CNc1ccccc1)C=Nc1ccccc1	1130 mg/kg
COc1cc(N)c(C)cc1N(C)C	29.7 mg/kg
CCC(C)(O)C#CC(C)(O)CC (stereo not given)	1400 mg/kg
CN(CCO)CC(O)Cn1cnc2c1c(=O)n(C)c(=O)n2C (stereo not given)	14100 mg/kg
CCCC(C)(C)C(=O)Nc1ccc(Cl)cc1	2600 mg/kg
CCC=C(C)C=O	4290 mg/kg

Compound	LD50
CC(=O)OC(c1ccc(Cl)c(Cl)c1)C(Cl)(Cl)Cl (stereo not given)	10000 mg/kg
Clc1ccc(N=Nc2ccc(NCCCN3CCCCC3)c3c2CCCC3)cc1	1120 mg/kg
CN(C)CCC(O)(c1ccccc1)c1ccccc1Cl (stereo not given)	350 mg/kg
Cc1cc(Cl)ccc1OCC(=O)Nc1ccccc1	4500 mg/kg
O=C1CN=C(c2ccccc2F)c2cc(Cl)ccc2N1CC1CC1	10100 mg/kg
CCNCC(O)c1cccc(O)c1 (stereo not given)	114 mg/kg
CC(C)(C)NCC(O)c1ccc(O)c(CO)n1 (stereo not given)	2800 mg/kg
O=C(CN1CCNCC1)NC1CCCCC1	3900 mg/kg
CCOP(=S)(OCC)SCn1ncccc1=O	2.5 mg/kg
O=C(O)CCC(=O)Nc1ccc(NS(=O)(=O)c2ccc([N+](=O)[O-])cc2)cc1	1500 mg/kg
COC(=O)c1cccc(CCN(C)Cc2ccccc2)c1	700 mg/kg
CCOP(=S)(OCC)Oc1cc(C)nc2ccccc12	50 mg/kg
CN(Sc1ccccc1)C(=O)Oc1cccc2c1OC(C)(C)C2	25 mg/kg
CC(Cl)(CCl)C(=O)O (stereo not given)	8000 mg/kg
C1CN2CCN1CC2	1700 mg/kg
CCC1COC(Cn2cncn2)(c2ccc(Cl)cc2Cl)O1 (stereo not given)	1340 mg/kg
COP(=S)(OC)Oc1cc(C)ccc1C(C)C	750 mg/kg
O=C(O)c1ccc(C(=O)O)c2c(C(=O)O)ccc(C(=O)O)c12	7500 mg/kg
CC1COn2c1nc1ccccc1c2=O (stereo not given)	765 mg/kg
C/N=N/Nc1ccc(Br)cc1	467 mg/kg
CC(=O)CC(=O)OC(C)C	16200 mg/kg
CCCCc1c(OC(=O)C23CC4CC(CC(C4)C2)C3)n(-c2ccccc2)n(-c2ccccc2)c1=O	1700 mg/kg
CCC12CCCN3CCc4c(n(c5cc(Br)ccc45)C(O)(C(=O)OC)C1)C32 (stereo not given)	1740 mg/kg
COc1ccc(CNc2cc(C(O)CNC(C)(C)C)ccc2O)cc1 (stereo not given)	1850 mg/kg
CCCCCCCCCCCCCCCCCC[N+](C)(C)Cc1ccccc1	1250 mg/kg
O=C(O)c1cccnc1C(=O)O	1550 mg/kg
